Data from patent publication EP2386565A2, “Compounds and methods to inhibit or augment an inflammatory response” (Cambridge Enterprise Ltd., priority 1999, dated 2000).
Values joined by “and” are separate entries in the source; they are usually repeats but may differ in a detail not shown here. Identical values can stand only once. “Also recorded” adds a separate entry of the source. Positions of bridges follow the written chain, without caps; N, C: chain ends. Non-standard residues stand in square brackets, D forms with d. Residues, ends and D or L forms follow the SMILES beside them.

System: ovalbumin-induced pulmonary inflammation, IgE, IL-4 and recall responses
Assay: Ovalbumin-induced asthma / hypersensitivity model
Type: in vivo, mice
Design: Total IgE (Serum), individual mice m1-m4 / Total IgE (Serum), Avg.: unit not given here
Settings: for ng/ml IgE (4X avg.): serum; for splenocyte recall response to OVA (in words): versus positive controls
Method: A third study assessed the efficacy of daily dosing with CRD-Leu4Ile11Cys13 peptide 3(3-12)[MCP-1] to reduce OVA-induced pulmonary inflammation. Mice were sensitized with 0.1 mg of ovalbumin or PBS (diluent control) intraperitoneally in the absence of the test agent. […] These treatments were given daily from day 8 through day 21. On day 8, thirty minutes following treatment, mice were challenged intratracheally with 1% ovalbumin or PBS. On days 15, 18, and 21, thirty minutes following treatment, mice were challenged intratracheally with 2% ovalbumin or PBS. Mice were sacrificed 3 hours post-ovalbumin challenge, on day 21. Lungs were collected for histopathology, and for isolation of cells for total cell counts and FACS analysis. Bronchalveolar lavage (BAL) was collected for eicosinoid levels. Serum was collected for IgE and IL-4 levels. Spleens were collected for cytokine recall responses. […]

[1] = Group 2: Ova on days 8, 15, 18, 21, treat 1 × day 21, sacrifice day 21, 0 µg/ml Ova
[2] = Group 4: Ova on days 8, 15, 18, 21 & 35, treat BID 14 days, sacrifice day 35 (recent Ova challenge), 0 µg/ml Ova
[3] = Group 5: Ova on days 8, 15, 18, 21, treat BID 14 days, sacrifice day 34 (No recent Ova challenge), 0 µg/ml Ova
[4] = Group 5: PBS on days 8, 15, 18, 21, treat BID 14 days, sacrifice day 34 (No recent Ova challenge), 0 µg/ml Ova

`CC[C@@H](C)[C@H]1NC(=O)[C@@H](CCC(N)=O)NC(=O)[C@H](N)CSSC[C@H](C(N)=O)NC(=O)[C@@H](CC(C)C)NC(=O)[C@@H](CC(=O)O)NC(=O)[C@H]2CCCN2C(=O)[C@@H](CCCCN)NC(=O)[C@@H](CCC(N)=O)NC(=O)[C@@H](CCCCN)NC(=O)[C@@H](Cc2c[nH]c3ccccc23)NC1=O` (H-[dC][dQ][dI][dW][dK][dQ][dK][dP][dD][dL][dC]-NH2; disulfide 1-11) was tested, and the “Total IgE (Serum), Avg.” value (Group 2) was 1.505, the “Total IgE (Serum), individual mice m1-m4” value (Group 2 (single treatment day 21)) was 1.952 and 1.132 and 2.073 and 0.863 and the “IL-4 Assays, pg/ml IL-4, Avg. of Group” value [1] was 2.89 pg/mL. The “IL-4 Assays, pg/ml IL-4, individual mice m1-m4” value [1] was 2.81 pg/mL and 5.60 pg/mL and 0.25 pg/mL and 0.45 pg/mL, the “Total IgM + IgG (1 week splenocyte cultures), Avg.” value (from here on “Total IgM + IgG … Avg.”) [1] was 57.45 and the “Total IgM + IgG (1 week splenocyte cultures), individual mice m1-m4” value (“Total IgM + IgG … individual mice m1-m4” for short) [1] was 108.00 and 24.97 and 40.65 and 56.17. For the same molecule, the “Total IgE (1 week splenocyte cultures)” value (Group 2, 0 µg/ml Ova) was 0.067 ng/mL, the “Total IgE (1 week splenocyte cultures), Avg.” value (Group 2, 0 µg/ml Ova) was 0.017 and the “Total IgE (1 week splenocyte cultures), individual mice m1-m4” value (Group 2, 0 µg/ml Ova) was 0.000 and 0.051 and 0.007 and 0.009. For the same molecule, the “IL-4 Assays, pg/ml IL-4, Avg. of Group” value (Group 2, 5 µg/ml Ova) was 5.86 pg/mL, the “IL-4 Assays, pg/ml IL-4, individual mice m1-m4” value (Group 2, 5 µg/ml Ova) was 3.18 pg/mL and 8.55 pg/mL and the “Total IgE (1 week splenocyte cultures)” value (Group 2, 5 µg/ml Ova) was 0.128 ng/mL. The “Total IgE (1 week splenocyte cultures), Avg.” value (Group 2, 5 µg/ml Ova) was 0.032, the “Total IgE (1 week splenocyte cultures), individual mice m1-m4” value (Group 2, 5 µg/ml Ova) was 0.041 and 0.023 and the “Total IgM + IgG … Avg.” value (Group 2, 5 µg/ml Ova) was 150.46. For the same molecule, the “Total IgM + IgG … individual mice m1-m4” value (Group 2, 5 µg/ml Ova) was 254.36 and 46.56, the “IL-4 Assays, pg/ml IL-4, Avg. of Group” value (Group 2, 50 µg/ml Ova) was 12.57 pg/mL and the “IL-4 Assays, pg/ml IL-4, individual mice m1-m4” value (Group 2, 50 µg/ml Ova) was 7.10 pg/mL and 11.46 pg/mL and 19.15 pg/mL and 75.36 pg/mL. For the same molecule, the “Total IgE (1 week splenocyte cultures)” value (Group 2, 50 µg/ml Ova) was 0.024 ng/mL, the “Total IgE (1 week splenocyte cultures), Avg.” value (Group 2, 50 µg/ml Ova) was 0.006 and the “Total IgE (1 week splenocyte cultures), individual mice m1-m4” value (Group 2, 50 µg/ml Ova) was 0.011 and 0.002 and 0.004 and 0.007. For the same molecule, the “Total IgM + IgG … Avg.” value (Group 2, 50 µg/ml Ova) was 241.75, the “Total IgM + IgG … individual mice m1-m4” value (Group 2, 50 µg/ml Ova) was 137.57 and 176.41 and 331.79 and 321.23 and the “ng/ml IgE (4X avg.)” value (Group 2) was 6.020 ng/mL. For the same molecule, the “Total IgE (Serum), Avg.” value (Group 4) was 0.621, the “Total IgE (1 week splenocyte cultures), individual mice m1-m4” value (Group 4 (recent Ova challenge), 0 µg/ml Ova, listed as CRD-Leu4Ile11Cys13peptide 3(3-12)[MCP-1]) was 0.008 and 0.001 and 0.015 and 0.002 and the “Total IgE (Serum), individual mice m1-m4” value (Group 4 (treated 14 days, recent Ova challenge)) was 0.310 and 0.298 and 0.984 and 0.890. For the same molecule, the “IL-4 Assays, pg/ml IL-4, Avg. of Group” value [2] was 2.92 pg/mL, the “Total IgM + IgG … Avg.” value [2] was 17.16 and the “Total IgE (1 week splenocyte cultures)” value (Group 4, 0 µg/ml Ova) was 0.026 ng/mL. For the same molecule, the “Total IgE (1 week splenocyte cultures), Avg.” value (Group 4, 0 µg/ml Ova) was 0.007, the “IL-4 Assays, pg/ml IL-4, Avg. of Group” value (Group 4, 5 µg/ml Ova) was 8.05 pg/mL and the “IL-4 Assays, pg/ml IL-4, individual mice m1-m4” value (Group 4, 5 µg/ml Ova) was 10.40 pg/mL and 12.77 pg/mL and 4.59 pg/mL and 4.45 pg/mL. For the same molecule, the “Total IgE (1 week splenocyte cultures)” value (Group 4, 5 µg/ml Ova) was 0.096 ng/mL, the “Total IgE (1 week splenocyte cultures), Avg.” value (Group 4, 5 µg/ml Ova) was 0.024 and the “Total IgM + IgG … Avg.” value (Group 4, 5 µg/ml Ova) was 163.95. The “Total IgE (1 week splenocyte cultures), individual mice m1-m4” value (Group 4, 5 µg/ml Ova, listed as CRD-Leu4Ile11Cys13peptide 3(3-12)[MCP-1]) was 0.009 (2×) and 0.047 and 0.031, the “Total IgM + IgG … individual mice m1-m4” value (Group 4, 5 µg/ml Ova, listed as CRD-Leu4Ile11Cys13 peptide 3(3-12)[MCP]) was 189.07 and 249.75 and 148.16 and 68.83 and the “IL-4 Assays, pg/ml IL-4, Avg. of Group” value (Group 4, 50 µg/ml Ova) was 14.45 pg/mL. For the same molecule, the “IL-4 Assays, pg/ml IL-4, individual mice m1-m4” value (Group 4, 50 µg/ml Ova) was 14.38 pg/mL and 22.08 pg/mL and 10.25 pg/mL and 11.09 pg/mL, the “Total IgE (1 week splenocyte cultures)” value (Group 4, 50 µg/ml Ova) was 0.082 ng/mL and the “Total IgE (1 week splenocyte cultures), Avg.” value (Group 4, 50 µg/ml Ova) was 0.021. For the same molecule, the “Total IgM + IgG … Avg.” value (Group 4, 50 µg/ml Ova) was 416.86, the “Total IgE (1 week splenocyte cultures), individual mice m1-m4” value (Group 4, 50 µg/ml Ova, listed as CRD-Leu4Ile11Cys13peptide 3(3-12)[MCP-1]) was 0.013 and 0.043 and 0.008 and 0.018 and the “Total IgM + IgG … individual mice m1-m4” value (Group 4, 50 µg/ml Ova, listed as CRD-Leu4Ile11Cys13 peptide 3(3-12)[MCP]) was 338.50 and 679.86 and 487.87 and 161.20. The “ng/ml IgE (4X avg.)” value (Group 4) was 2.482 ng/mL, the “Total IgE (Serum), Avg.” value (Group 5) was 1.102 and the “Total IgE (1 week splenocyte cultures), individual mice m1-m4” value (Group 5 (No recent Ova challenge), 0 µg/ml Ova) was 0.008 and 0.033 and 0.000 and 0.024. The “Total IgE (Serum), individual mice m1-m4” value (Group 5 (treated 14 days, no recent Ova challenge)) was 0.625 and 1.870 and 0.838 and 1.073, the “IL-4 Assays, pg/ml IL-4, Avg. of Group” value [3] was 8.05 pg/mL and the “IL-4 Assays, pg/ml IL-4, individual mice m1-m4” value [3] was 9.09 pg/mL and 3.80 pg/mL and 12.89 pg/mL and 6.42 pg/mL. For the same molecule, the “Total IgM + IgG … Avg.” value [4] was 20.05, the “Total IgM + IgG … individual mice m1-m4” value [4] was 26.54 and 15.44 and 21.35 and 16.89 and the “Total IgE (1 week splenocyte cultures)” value (Group 5, 0 µg/ml Ova) was 0.065 ng/mL. The “Total IgE (1 week splenocyte cultures), Avg.” value (Group 5, 0 µg/ml Ova) was 0.016, the “IL-4 Assays, pg/ml IL-4, Avg. of Group” value (Group 5, 5 µg/ml Ova) was 6.33 pg/mL and the “IL-4 Assays, pg/ml IL-4, individual mice m1-m4” value (Group 5, 5 µg/ml Ova) was 5.70 pg/mL and 4.43 pg/mL and 10.09 pg/mL and 5.10 pg/mL. For the same molecule, the “Total IgE (1 week splenocyte cultures)” value (Group 5, 5 µg/ml Ova) was 0.082 ng/mL, the “Total IgE (1 week splenocyte cultures), Avg.” value (Group 5, 5 µg/ml Ova) was 0.021 and the “Total IgE (1 week splenocyte cultures), individual mice m1-m4” value (Group 5, 5 µg/ml Ova) was 0.003 and 0.065 and 0.000 and 0.014. For the same molecule, the “Total IgM + IgG … Avg.” value (Group 5, 5 µg/ml Ova) was 53.22, the “Total IgM + IgG … individual mice m1-m4” value (Group 5, 5 µg/ml Ova) was 64.20 and 31.21 and 67.94 and 49.53 and the “IL-4 Assays, pg/ml IL-4, Avg. of Group” value (Group 5, 50 µg/ml Ova) was 5.61 pg/mL. For the same molecule, the “IL-4 Assays, pg/ml IL-4, individual mice m1-m4” value (Group 5, 50 µg/ml Ova) was 7.02 pg/mL and 6.10 pg/mL and 4.74 pg/mL and 4.59 pg/mL, the “Total IgE (1 week splenocyte cultures)” value (Group 5, 50 µg/ml Ova) was 0.021 ng/mL and the “Total IgE (1 week splenocyte cultures), Avg.” value (Group 5, 50 µg/ml Ova) was 0.005. The “Total IgE (1 week splenocyte cultures), individual mice m1-m4” value (Group 5, 50 µg/ml Ova) was 0.000 (2×) and 0.020 and 0.001, the “Total IgM + IgG … Avg.” value (Group 5, 50 µg/ml Ova) was 111.41 and the “Total IgM + IgG … individual mice m1-m4” value (Group 5, 50 µg/ml Ova) was 86.16 and 80.04 and 189.70 and 89.74. For the same molecule, the “ng/ml IgE (4X avg.)” value (Group 5) was 4.406 ng/mL, the “inflammatory infiltrates in the lung, histology (in words)” value (first study, high dose) was “minimal to no inflammatory infiltrates” and the “reduction in IL-4” value (second study, dose-dependent) was 85%. For the same molecule, the reduction in macrophages (second study, dose-dependent) was 74%, the “reduction in total cells in the lung” value (second study, dose-dependent) was “approximately 50%” and the “reduction in IgE” value (second study, s.c. 10.3 µg-1.03 mg before OVA challenges, dose-dependent) was 60%. For the same molecule, the “cells in the lungs, total counts / FACS (in words)” value (versus PBS + OVA positive controls, study and dose as in the block) was “significantly lower numbers of CD3, CD4, B220, and Mac-1 cells; also recorded: significantly lower percentages of macrophages; also recorded: significantly lower numbers of macrophages, B cells, and CD4+ T cells; also recorded: no significant reduction of total cells in the lungs”, the “IgE levels (in words)” value (versus PBS + OVA positive controls, study as in the block) was “not detectable above background; also recorded: significantly lower; also recorded: significantly reduced; also recorded: reduced levels of serum IgE” and the “splenocyte recall response to OVA (in words)” value (study as in the block) was “reduced levels of IL-4, IgE, and total IgG and IgM”. The “splenocyte recall response to OVA (in words)” value (study as in the block, listed as CRD-Leu4Ile11Cys13peptide 3(3-12)[MCP-1]) was “significantly less IL-4”.
